In patent publication US20220331448A1, “COMPOSITIONS AND METHODS FOR TREATING SUCCINIC SEMIALDEHYDE DEHYDROGENASE DEFICIENCY (SSADHD)” (Washington State University, priority 2018, published 2022):
Like-named read-outs stand apart in the source and are kept apart here.

Legend:
[1] = tested on: Madin-Darby Canine Kidney (MDCK) cells; assay: Transport in MDCK cells; assay type: in vitro ADME
Description: (§1) Applicants subsequently turned attention to the transport of NCS-382 in vitro. […] Applicants examined cortical regions from the NCS-treated mice and evaluated the expression of a number of solute carriers involved in neurotransmitter transport. […] This finding is of interest in view of the significant depletion of glutathione in this animal model, the observation that glutathione is composed of glutamate, cysteine and glycine, and the earlier finding that glutamate/glutamine levels are abnormal in aldh5a1−/− brain (Gupta, J Pharmacol Exp Ther 302:180-187 (2004); Chowdhury, (2007)).

[2] = tested on: solute carriers (Slc) in aldh5a1−/− cortex; assay: Cortical expression of solute carriers after NCS-382 in aldh5a1−/− mice; assay type: in vivo; settings: 300 mg/kg, 7 days
Description: Functional role of carriers: *17a6, *17a7, *17a8, vesicular glutamate (glu) transporter, glu cotransporter, and glu transporter 3, respectively; 1a1, *1a2, 1a3, 1a4, excitatory amino acid transporters 3, 2, 1 and 4, respectively; *32a1, GABA vesicular transporter; 38a1, Na+-coupled amino acid transporter 1 (glutamine transport); *6a1, plasma membrane GABA transporter; *6a11, 6a12, 6a13, Na+-dependent GABA presynaptic terminal reuptake, Na+/Cl−-dependent betaine, and Na+/Cl−-dependent GABA 2 transporters, respectively; 7a11, glutamate-cysteine antiporter.
as §1

GHB receptor (GHBR) = settings: relative to GHB; cited from earlier work
aldh5a1−/− mice [3] = settings: cited from earlier work
[4] = tested on: gamma-butyrolactone (GBL)-treated animals; settings: mouse, in vivo; cited from earlier work
HepG2 cells [5] = assay: Gene expression in HepG2 cells; settings: 0.5 mM, altered >4-fold
HepG2 cells [6] = assay: Cellular toxicity in HepG2 cells; settings: up to 1 mM
[7] = Metabolism in mouse liver microsomes
[8] = Metabolism in human liver microsomes
[9] = Pharmacokinetics after i.p. NCS-382 in C57/B6 mice; settings: i.p. 100 to 500 mg/kg
aldh5a1−/− NSCs = assay: Pharmacotoxicity in neural stem cells from aldh5a1−/− mice; settings: high-dose
aldh5a1−/− mouse brain [10] = assay: Brain gene expression (GABA(A) receptor subunits, AMPK/mTOR pathway) under Torin drugs; assay type: in vivo; settings: for lower expression of Tsc1 and 2: aldh5a1−/− mouse brain
[11] = tested on: aldh5a1+/+ and aldh5a1−/− mice; assay: Electrocorticography: seizures under Torin 2; assay type: in vivo; settings: 10 mg/kg, mean ± SEM
Procedure: FIG. 7—Representative electrocorticographic recordings of seizure types in an aldh5a1−/− mouse.
Studies with Torin 2 administration in aldh5a1−/− mice, beginning at DOL10 under an escalating dose paradigm, were evaluated for seizures using a three channel recording electrocorticography (Pinnacle Technology; https://www.pinnaclet.com/eeg-emg-systerns.html) and electrode-implanted aldh5a1+/+ and aldh5a1−/− mice. EEG was scored offline using semi-automated detection (Neuroscore, Data Sciences International, St. Paul, Minn.) for seizure frequency (total number of seizures), and total ictal time (cumulative time spent in seizures); where a seizure event was defined as a run of continuous spikes ≥3s in duration on the EEG. Automatically detected events were verified by visual inspection (Dhamne et al. Mol Autism 8:26 (2017)). Our prediction was that Torin 2 administration would lead to improvement in both parameters. […] If these receptors remain immature, consistent with our hypothesis for bumetanide (see above), then their subsequent up-regulation could conceivably exacerbate depolarization, and thus enhance cumulative epileptic outburst duration, as Applicants observed (Table 2). […]

aldh5a1−/− mouse brain [12] = settings: in vivo; cited from earlier work
[13] = tested on: aldh5a1+/+ and aldh5a1−/− mice; assay: Time to immobilization (sedation) after acute i.p. bumetanide; assay type: in vivo
Description: (§2) FIGS. 5A-5C—Intracellular chloride homeostasis, GABAergic neurotransmission and bumetanide in SSADHD (for abbreviations, see FIG. 1). (FIG. 5A) Schematic diagram of membrane ion transport and mechanism of action of bumetanide. (FIG. 5B) NKCC1 and KCC2 gene expression in the hypothalamus of aldh5a1+/+(n=5) and aldh5a1−/− (n=5) mice collected at postnatal day-of-life 20. Expression data were obtained using q-RT-PCR, validated pathway plates from Bio-Rad. (FIG. 5C) Time to sedation following acute dosing of 100 mg/kg bumetanide. Animals were evaluated at day of life (DOL) 20 and 24 for seizure events, and the time to immobilization (sedation) determined by visual recording using Noldus technology (see text). Bumetanide was administered intraperitoneally to the subject mice after 20 min. of initial observational recording, followed by an additional 20 minutes of recording. Total number of seizures was quantified in 5 min blocks of the total 40 min. recording period. Bumetanide was obtained from Enzo Life Sciences, Inc. (Farmingdale, N.Y., USA) and aseptically dissolved in DMSO vehicle. […] Abbreviations employed: n, number of animals studied; DOL, day of life; sec, seconds; min, minutes.
The potential therapeutic role of NKCC1 inhibition in SSADHD was next examined. In this context, Applicants postulated that there would be resistance to the sedative activity of NKCC1 inhibitors in SSADHD, because of the increased expression of NKCC1. Applicants treated aldh5a1+/+ and aldh5a1−/− mice with acute i.p. doses of bumetanide (25 and 100 mg/kg body weight) with video recording of seizure activity as well as assessment of the time to immobilization. […] Applicants employed Pinnacle technology (https://www.pinnaclet.com) technology for recording of animal behavior in conjunction with a rubric developed by Noldus technology to evaluate seizure activity (http://www.noldus.com/animal-behavior-research). Applicants' design was to quantify generalized tonic-clonic seizures in 5 minute epochs for 40 minutes in continuum. At the 20 minute mark, a single intraperitoneal administration of bumetanide (25 or 100 mg/kg) was given and the animals returned to the open field setting.

aldh5a1−/− mice [14] = assay: Video-recorded seizure activity after acute i.p. bumetanide; assay type: in vivo
Description: as §2
The potential therapeutic role of NKCC1 inhibition in SSADHD was next examined. […] Applicants' design was to quantify generalized tonic-clonic seizures in 5 minute epochs for 40 minutes in continuum. […]

[15] = tested on: gamma-butyrolactone (GBL)-treated animals; assay: Block of sedative and motor effects of GBL in mice; assay type: in vivo; settings: diclofenac 25 mg/kg with NCS-382 300 mg/kg
aldh5a1−/− mice [16] = assay: Enzyme replacement therapy: survival of aldh5a1−/− mice to DOL 30; assay type: in vivo; settings: i.p. 1 mg/kg q.d. from DOL 10; 4 of 5 mice
Description: As a therapeutic approach, enzyme replacement therapy (ERT) has gained prominence in the lysosomal storage disorders, although it should be feasible in organic acidernias (Darvish-Damavandi et al. Mol Genet Metab Rep 8:51-60 (2016)). Applicants examined the feasibility of ERT in aldh5a1−/− mice using a GST (glutathione)-tagged human ALDH5A1 gene construct that overexpresses the GST-hSSADH fusion protein with accompanying ampicillin resistance in E. coli (DNASU Plasmid Repository; Ramachandran et al. (2004)). Crude extracts of E. coli were harvested that had been transfected and grown in standard LB broth supplemented with ampicillin at 37° C. overnight, pelleted and lysed with Pefabloc (protease inhibitor; Sigma-Aldrich, St. Louis, Mo. USA) and lysozyme. GST-hSSADH resident in crude lysates of E. coli was purified using Pierce™ GST spin purification kits, followed by dialysis and subsequent concentration using polyethersulfone (PES) columns. Resultant protein content was quantified using a standard BCA protein assay. The GST-tagged enzyme activity was cleaved with thrombin and the activity of ALDH5A1 determined employing spectrofluorometry based on the NAD/NADH couple (Gibson et al. Clin Chim Acta 196:219-221 (1991)).

aldh5a1−/− mice [17] = assay: GHB and GABA by LC/MS-MS after ERT; assay type: in vivo; settings: enzyme treated animals
[18] = tested on: GABAA receptor subunits in aldh5a1−/− mice; assay: Expression of GABA receptor genes after ERT; settings: ERT DOL 30 vs untreated DOL 21
[19] = with NADPH, parent disappearance

O=C(O)/C=C1\CCCc2ccccc2C1O (stereo not shown) [NCS-382]
inhibition of GHB transport [1]: capable of inhibiting GHB transport | transport of the compound ([1]; MDCK): actively transported | expression of the glutamate-cystine antiporter [2]: induced significant down-regulation | solute carriers with aberrant expression normalized [2]: normalized the aberrant expression of seven | solute carriers without effect [2]: had no effect on six | Ki, times lower than that of GHB (GHB receptor (GHBR)): 14 times | rescue from premature lethality / lifespan extension (aldh5a1−/− mice [3]): effective | blocking the motor deficits induced by GBL [4]: effective | CD36 expression change (HepG2 cells [5]): ↓ | HTRA4 expression change (HepG2 cells [5]): ↑ | SERPINA3 expression change (HepG2 cells [5]): ↓ | SLC2A3 expression change (HepG2 cells [5]): ↓ | SLC51A expression change (HepG2 cells [5]): ↓ | TNFRSF1A expression change (HepG2 cells [5]): ↑ | cytotoxicity (cellular integrity, survival, organelle function) (HepG2 cells [6]): little evidence | concentration up to which glucuronide formation was linear ([7]; mouse): up to 100 μM | calculated hepatic clearance ([7]; murine): 5.2 L/h/kg body weight | Km ([7]; read-out: Michaelis constant (Km) for dehydrogenation, mouse): 29.5 ± 10 µM | intrinsic clearance (Clint) [7, 19]: 0.587 mL/min/mg protein | calculated hepatic clearance ([8]; human): 1.2 L/h/kg body weight | concentration up to which glucuronide formation was linear ([8]; human): up to 100 μM | Km ([8]; read-out: Michaelis constant (Km) for dehydrogenation, human): 12.7 ± 4.9 µM | intrinsic clearance (Clint) [8, 19]: 0.513 mL/min/mg protein | brain t½ ([9]; decreasing with increasing dose): 45.6 to 58.2 min | plasma elimination t½ ([9]; dose-dependent): 15 to 40.8 min | pharmacotoxicity in neural stem cells (aldh5a1−/− NSCs): only minimal pharmacotoxicity

CCC(=O)N1CCN(c2ccc(-n3c(=O)ccc4cnc5ccc(-c6cnc7ccccc7c6)cc5c43)cc2C(F)(F)F)CC1 [Torin 1]
decreased expression of Prkag1 and 2 (aldh5a1−/− mouse brain [10]; aldh5a1−/− brain): normalized | lower expression of Tsc1 and 2 (aldh5a1−/− mouse brain [10]): normalized | rescue from premature lethality / lifespan extension (aldh5a1−/− mice [3]): significantly prolong the lifespan

Nc1ccc(-c2ccc3ncc4ccc(=O)n(-c5cccc(C(F)(F)F)c5)c4c3c2)cn1 [Torin 2]
Seizure Frequency [11]: 0.50 ± 0.59 avg/hr | Total Ictal Time [11]: 2.1 ± 1.2 seconds (avg/hr) | expression of Stk11 (AMPK's activator) (aldh5a1−/− mouse brain [10]; aldh5a1−/− mice): normalized | lower expression of Tsc1 and 2 (aldh5a1−/− mouse brain [10]): normalized | rescue from premature lethality / lifespan extension (aldh5a1−/− mice [3]): rescue | rescue from premature lethality / lifespan extension (aldh5a1−/− mice [3]; listed as Torin2): striking | rescue from premature lethality / lifespan extension (aldh5a1−/− mice [3]; listed as torin 2): significantly prolong the lifespan | expression of GABA(A)ergic receptor subunits (aldh5a1−/− mouse brain [12]): corrected (upregulated)

CCCCNc1cc(C(=O)O)cc(S(N)(=O)=O)c1Oc1ccccc1 [bumetanide]
immobilization during the 40 minute recording ([13]; 25 mg/kg i.p., aldh5a1+/+ or aldh5a1−/−): did not induce immobilization | immobilization ([13]; 100 mg/kg i.p.): rapid induction of immobilization | time to sedation in wild-type mice ([13]; 100 mg/kg, aldh5a1+/+): almost instantaneous immobilization | period from injection to onset of immobilization ([13]; 100 mg/kg, aldh5a1−/−): 3 to 8 min | seizure activity without sedation (aldh5a1−/− mice [14]; 25 mg/kg, data not shown): reduced seizure activity | seizure activity between injection and onset of immobilization (aldh5a1−/− mice [14]; 100 mg/kg): no seizure activity

O=C(O)Cc1ccccc1Nc1c(Cl)cccc1Cl [diclofenac]
effect of co-administration on efficacy of NCS-382 to block sedative and motor effects of GBL [15]: improved the efficacy

NCCS(=O)(=O)O [taurine]
rescue from premature lethality / lifespan extension (aldh5a1−/− mice [3]): rescue

B1: ALDH5A1: bacterially-produced purified human ALDH5A1 (SSADH) enzyme, from GST-hSSADH fusion protein cleaved with thrombin (protein, UniProt P51649 48-535, looked up)
Succinate-semialdehyde …: AGRLAGLSAALLRTDSFVGGRWLPAAATFPVQDPASGAALGMVADCGVREARAAVRAAYEAFCRWREVSAKERSSLLRKWYNLMIQNKDDLARIITAESGKPLKEAHGEILYSAFFLEWFSEEARRVYGDIIHTPAKDRRALVLKQPIGVAAVITPWNFPSAMITRKVGAALAAGCTVVVKPAEDTPFSALALAELASQAGIPSGVYNVIPCSRKNAKEVGEAICTDPLVSKISFTGSTTTGKILLHHAANSVKRVSMELGGLAPFIVFDSANVDQAVAGAMASKFRNTGQTCVCSNQFLVQRGIHDAFVKAFAEAMKKNLRVGNGFEEGTTQGPLINEKAVEKVEKQVNDAVSKGATVVTGGKRHQLGKNFFEPTLLCNVTQDMLCTHEETFGPLAPVIKFDTEEEAIAIANAADVGLAGYFYSQDPAQIWRVAEQLEVGMVGVNEGLISSVECPFGGVKQSGLGREGSKYGIDEYLELKYVCYGGL
modifications: thrombin-cleaved from GST fusion
notes: bacterially-produced purified human ALDH5A1 (SSADH) enzyme, from GST-hSSADH fusion protein cleaved with thrombin
survival rate to 30 days (aldh5a1−/− mice [16]): 80% | GABA in blood (aldh5a1−/− mice [17]): trend toward improved levels | GHB in the brain (aldh5a1−/− mice [17]): significant correction | expression of GABAA receptor subunits (primarily gamma, epsilon and theta) [18]: significantly corrected
